Measured values published in ChEMBL document CHEMBL3585313, “Fragment-Based Discovery of a Small Molecule Inhibitor of Bruton's Tyrosine Kinase” (J Med Chem, 2015).
Each block holds one molecule with its values, some of them ahead of it.

What was measured:
[1] = target: Tyrosine-protein kinase Lck (Homo sapiens, UniProt P06239); assay: Inhibition of Lck (unknown origin)
[2] = target: T1, Tyrosine-protein kinase BTK (Homo sapiens, UniProt Q06187)
Description: Inhibition of BTK in human Raji cells after 30 mins by HTRF assay

[3] = Clearance in Sprague-Dawley rat at 1 mg/kg, iv; assay type: ADME, organism-based; conditions: in vivo
[4] = Volume of distribution at steady state in Sprague-Dawley rat at 1 mg/kg, iv and 4 mg/kg, po; assay type: ADME, organism-based; conditions: in vivo, read-out: Vdss
[5] = Half life in Sprague-Dawley rat at 1 mg/kg, iv and 4 mg/kg, po; assay type: ADME, organism-based; conditions: in vivo
[6] = Oral bioavailability in Sprague-Dawley rat at 4 mg/kg; assay type: ADME, organism-based; conditions: in vivo
Activin receptor type-1 = Activin receptor type-1 (Homo sapiens, UniProt Q04771); assay: Inhibition of human recombinant ALK2 by LanthaScreen Binding assay
LIM domain kinase 1 = LIM domain kinase 1 (Homo sapiens, UniProt P53667); assay: Inhibition of human recombinant LIMK1 by LanthaScreen Binding assay
Activated CDC42 kinase 1 = Activated CDC42 kinase 1 (Homo sapiens, UniProt Q07912); assay: Inhibition of human recombinant TNK2 by LanthaScreen Binding assay
Rattus norvegicus [7] = assay: Antiarthritic activity in po dosed bovine type-2 collagen-induced po dosed female Lewis rat arthritic model assessed as inhibition of paw volume administered as qd starting on day 12 continued through day 21; assay type: functional, organism-based
Rattus norvegicus [8] = assay: Antiarthritic activity in po dosed bovine type-2 collagen-induced po dosed female Lewis rat arthritic model assessed as increase in paw volume AUC (0 to 24 hrs) administered as qd starting on day 12 continued through day 21; assay type: functional, organism-based
[9] = Clearance in C57/bl6 mouse at 1 mg/kg, iv and 10 mg/kg, po; assay type: ADME, organism-based; conditions: in vivo
[10] = Volume of distribution at steady state in C57/bl6 mouse at 1 mg/kg, iv and 10 mg/kg, po; assay type: ADME, organism-based; conditions: in vivo, read-out: Vdss
[11] = Half life in C57/bl6 mouse at 1 mg/kg, iv and 10 mg/kg, po; assay type: ADME, organism-based; conditions: in vivo
[12] = Oral bioavailability in C57/bl6 mouse at 10 mg/kg; assay type: ADME, organism-based; conditions: in vivo
[13] = Clearance in beagle dog at 1 mg/kg, iv and 10 mg/kg, po; assay type: ADME, organism-based, Canis lupus familiaris; conditions: in vivo
[14] = Volume of distribution at steady state in beagle dog at 1 mg/kg, iv and 10 mg/kg, po; assay type: ADME, organism-based, Canis lupus familiaris; conditions: in vivo, read-out: Vdss
[15] = Half life in beagle dog at 1 mg/kg, iv and 10 mg/kg, po; assay type: ADME, organism-based, Canis lupus familiaris; conditions: in vivo
[16] = Oral bioavailability in beagle dog at 10 mg/kg; assay type: ADME, organism-based, Canis lupus familiaris; conditions: in vivo
[17] = target: T2, Tyrosine-protein kinase Blk (Homo sapiens, UniProt P51451); assay: Inhibition of human recombinant Blk at 1 uM
[18] = target: Cytoplasmic tyrosine-protein kinase BMX (Homo sapiens) (UniProt P51813); assay: Inhibition of human recombinant Bmx at 1 uM
[19] = target: Tyrosine-protein kinase Tec (Homo sapiens) (UniProt P42680); assay: Inhibition of human recombinant Tec at 1 uM
[20] = target: T3, Tyrosine-protein kinase Fgr (Homo sapiens, UniProt P09769); assay: Inhibition of human recombinant Fgr at 1 uM
[21] = target: T4, Tyrosine-protein kinase FRK (Homo sapiens, UniProt P42685); assay: Inhibition of human recombinant Frk at 1 uM
[22] = target: Tyrosine-protein kinase Fyn (Homo sapiens) (UniProt P06241); assay: Inhibition of human recombinant Fyn at 1 uM
[23] = target: T5, Tyrosine-protein kinase HCK (Homo sapiens, UniProt P08631); assay: Inhibition of human recombinant Hck at 1 uM
[24] = target: T6, Proto-oncogene tyrosine-protein kinase Src (Homo sapiens, UniProt P12931); assay: Inhibition of human recombinant Src at 1 uM
[25] = target: Tyrosine-protein kinase Yes (Homo sapiens) (UniProt P07947); assay: Inhibition of human recombinant Yes at 1 uM
[26] = target: T2, Tyrosine-protein kinase Blk; assay: Inhibition of human recombinant Blk
[27] = target: Cytoplasmic tyrosine-protein kinase BMX (Homo sapiens, UniProt P51813); assay: Inhibition of human recombinant Bmx
[28] = target: Tyrosine-protein kinase Tec (Homo sapiens, UniProt P42680); assay: Inhibition of human recombinant Tec
[29] = target: T3, Tyrosine-protein kinase Fgr; assay: Inhibition of human recombinant Fgr
[30] = target: T4, Tyrosine-protein kinase FRK; assay: Inhibition of human recombinant Frk
[31] = target: T5, Tyrosine-protein kinase HCK; assay: Inhibition of human recombinant Hck
[32] = target: T7, Tyrosine-protein kinase Lyn (Homo sapiens, UniProt P07948); assay: Inhibition of human recombinant LynA
Target sequence in this assay (P07948 whole entry): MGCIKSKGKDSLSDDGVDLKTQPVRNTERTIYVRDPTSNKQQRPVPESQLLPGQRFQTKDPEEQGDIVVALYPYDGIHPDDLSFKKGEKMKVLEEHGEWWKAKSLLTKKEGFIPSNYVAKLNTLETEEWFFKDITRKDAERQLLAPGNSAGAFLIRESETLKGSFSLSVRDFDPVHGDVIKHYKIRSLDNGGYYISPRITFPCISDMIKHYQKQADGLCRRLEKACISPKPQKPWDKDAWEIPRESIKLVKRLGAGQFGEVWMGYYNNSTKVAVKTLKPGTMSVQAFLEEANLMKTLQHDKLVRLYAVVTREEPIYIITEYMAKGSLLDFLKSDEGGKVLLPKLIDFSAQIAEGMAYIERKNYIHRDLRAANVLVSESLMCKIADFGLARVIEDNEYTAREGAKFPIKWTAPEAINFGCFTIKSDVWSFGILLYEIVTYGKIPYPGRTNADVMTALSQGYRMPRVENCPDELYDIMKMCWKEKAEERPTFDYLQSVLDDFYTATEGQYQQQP

[33] = target: T7, Tyrosine-protein kinase Lyn; assay: Inhibition of human recombinant LynB
Target sequence in this assay (P07948 whole entry): as above

[34] = target: T6, Proto-oncogene tyrosine-protein kinase Src; assay: Inhibition of human recombinant Src
[35] = target: T7, Tyrosine-protein kinase Lyn; conditions: 1 uM
Target sequence in this assay (P07948 2-512 limits assumed): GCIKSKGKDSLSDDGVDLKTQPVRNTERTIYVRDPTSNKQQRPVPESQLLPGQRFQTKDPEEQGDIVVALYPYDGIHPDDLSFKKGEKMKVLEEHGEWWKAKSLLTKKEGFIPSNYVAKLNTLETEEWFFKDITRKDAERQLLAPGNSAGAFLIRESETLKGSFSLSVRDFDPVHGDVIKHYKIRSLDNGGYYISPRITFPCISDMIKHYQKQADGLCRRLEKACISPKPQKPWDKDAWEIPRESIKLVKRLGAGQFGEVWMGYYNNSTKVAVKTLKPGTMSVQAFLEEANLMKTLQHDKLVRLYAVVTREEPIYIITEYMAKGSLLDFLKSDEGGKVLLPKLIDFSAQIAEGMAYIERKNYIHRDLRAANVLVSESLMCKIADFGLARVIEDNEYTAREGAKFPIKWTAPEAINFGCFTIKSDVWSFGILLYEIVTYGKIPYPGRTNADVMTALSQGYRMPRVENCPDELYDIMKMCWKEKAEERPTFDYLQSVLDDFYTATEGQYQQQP
Description: Inhibition of human recombinant LynA at 1 uM

[36] = target: T7, Tyrosine-protein kinase Lyn; conditions: 1 uM; remark: listed apart in the source
Target sequence in this assay (P07948 2-512 limits assumed): as above
Description: Inhibition of human recombinant LynB at 1 uM

[37] = target: T1, Tyrosine-protein kinase BTK; assay: Inhibition of BTK autophosphorylation in human Raji cells after 30 mins by Phos-Y223 Btk HTRF assay; assay type: cell-based
[38] = Hepatic extraction ratio in human liver microsomes at 1 uM up to 30 mins by LC-MS/MS analysis; assay type: ADME; conditions: read-out: ERH
[39] = Hepatic extraction ratio in rat liver microsomes at 1 uM up to 30 mins by LC-MS/MS analysis; assay type: ADME; conditions: read-out: ERH
MDR1 = assay: Apparent permeability across apical to basolateral side in pig LLC-PK1 cells expressing MDR1; assay type: ADME, cell-based, Sus scrofa
LLC-PK1 = assay: Efflux ratio of apparent permeability across apical to basolateral side over basolateral to apical side in pig LLC-PK1 cells expressing MDR1; assay type: ADME, cell-based, Sus scrofa
[40] = Hepatic extraction ratio in Sprague-Dawley rat at 1 mg/kg, iv; assay type: ADME, organism-based; conditions: in vivo, read-out: ERH

T1 sequence (Q06187 whole entry): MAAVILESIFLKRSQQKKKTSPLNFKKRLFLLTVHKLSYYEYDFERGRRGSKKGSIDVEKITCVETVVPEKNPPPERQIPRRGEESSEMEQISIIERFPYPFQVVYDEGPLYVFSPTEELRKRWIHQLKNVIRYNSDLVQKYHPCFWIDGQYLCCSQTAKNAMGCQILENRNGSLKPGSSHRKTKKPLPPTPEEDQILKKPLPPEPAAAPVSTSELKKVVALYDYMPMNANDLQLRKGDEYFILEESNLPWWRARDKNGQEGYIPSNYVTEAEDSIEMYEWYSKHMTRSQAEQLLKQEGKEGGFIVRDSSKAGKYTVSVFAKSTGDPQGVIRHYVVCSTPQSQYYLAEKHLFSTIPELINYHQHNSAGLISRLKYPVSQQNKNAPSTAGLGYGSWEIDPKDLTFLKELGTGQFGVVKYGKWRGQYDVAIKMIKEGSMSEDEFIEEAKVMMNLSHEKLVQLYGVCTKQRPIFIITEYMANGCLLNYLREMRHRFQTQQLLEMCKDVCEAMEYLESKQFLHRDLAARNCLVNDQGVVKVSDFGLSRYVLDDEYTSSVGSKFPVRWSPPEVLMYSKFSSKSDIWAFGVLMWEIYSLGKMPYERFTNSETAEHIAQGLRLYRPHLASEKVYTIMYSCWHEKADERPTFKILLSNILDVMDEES
Sequence of Tyrosine-protein kinase Lck (P06239 whole entry): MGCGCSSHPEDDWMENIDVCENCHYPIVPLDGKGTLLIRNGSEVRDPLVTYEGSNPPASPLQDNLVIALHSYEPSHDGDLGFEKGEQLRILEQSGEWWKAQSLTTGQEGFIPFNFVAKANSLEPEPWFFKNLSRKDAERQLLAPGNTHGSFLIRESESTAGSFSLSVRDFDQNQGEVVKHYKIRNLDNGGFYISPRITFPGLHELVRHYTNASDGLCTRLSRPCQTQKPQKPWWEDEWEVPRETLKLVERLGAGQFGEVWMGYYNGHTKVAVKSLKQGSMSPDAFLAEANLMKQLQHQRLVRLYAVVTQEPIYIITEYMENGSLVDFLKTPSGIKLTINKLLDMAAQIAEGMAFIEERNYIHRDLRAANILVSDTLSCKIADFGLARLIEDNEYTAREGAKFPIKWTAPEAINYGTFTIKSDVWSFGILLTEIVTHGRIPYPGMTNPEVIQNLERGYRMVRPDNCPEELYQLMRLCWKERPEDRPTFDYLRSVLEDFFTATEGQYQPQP
T6 sequence (P12931 2-536 limits assumed): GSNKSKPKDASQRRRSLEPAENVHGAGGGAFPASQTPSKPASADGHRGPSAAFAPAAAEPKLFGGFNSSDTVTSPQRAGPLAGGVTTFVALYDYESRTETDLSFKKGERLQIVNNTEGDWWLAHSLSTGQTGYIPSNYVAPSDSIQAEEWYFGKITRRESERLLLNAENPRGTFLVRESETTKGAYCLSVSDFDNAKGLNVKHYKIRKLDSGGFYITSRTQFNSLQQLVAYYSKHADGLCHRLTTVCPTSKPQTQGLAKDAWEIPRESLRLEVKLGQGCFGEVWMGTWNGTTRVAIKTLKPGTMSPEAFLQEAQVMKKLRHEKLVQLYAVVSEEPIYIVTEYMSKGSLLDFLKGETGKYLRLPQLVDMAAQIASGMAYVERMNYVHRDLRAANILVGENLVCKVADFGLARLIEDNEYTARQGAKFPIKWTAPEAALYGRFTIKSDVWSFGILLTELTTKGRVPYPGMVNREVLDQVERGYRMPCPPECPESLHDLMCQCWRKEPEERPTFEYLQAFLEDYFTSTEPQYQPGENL
T4 sequence (P42685 whole entry): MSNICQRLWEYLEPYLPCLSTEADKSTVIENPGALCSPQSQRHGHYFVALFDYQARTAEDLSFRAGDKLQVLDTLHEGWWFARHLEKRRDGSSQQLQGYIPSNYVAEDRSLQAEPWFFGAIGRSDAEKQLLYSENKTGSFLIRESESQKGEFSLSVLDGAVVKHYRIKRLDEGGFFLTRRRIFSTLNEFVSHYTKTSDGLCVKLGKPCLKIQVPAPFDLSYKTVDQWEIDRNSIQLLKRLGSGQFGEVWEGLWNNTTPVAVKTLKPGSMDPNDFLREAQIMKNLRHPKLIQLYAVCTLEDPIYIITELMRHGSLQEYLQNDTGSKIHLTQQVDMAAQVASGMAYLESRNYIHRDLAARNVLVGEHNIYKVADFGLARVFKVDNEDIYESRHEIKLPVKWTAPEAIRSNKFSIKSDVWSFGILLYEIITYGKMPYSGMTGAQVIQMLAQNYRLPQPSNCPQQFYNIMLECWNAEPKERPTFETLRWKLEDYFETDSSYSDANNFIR
Sequence of Activated CDC42 kinase 1 (Q07912 whole entry): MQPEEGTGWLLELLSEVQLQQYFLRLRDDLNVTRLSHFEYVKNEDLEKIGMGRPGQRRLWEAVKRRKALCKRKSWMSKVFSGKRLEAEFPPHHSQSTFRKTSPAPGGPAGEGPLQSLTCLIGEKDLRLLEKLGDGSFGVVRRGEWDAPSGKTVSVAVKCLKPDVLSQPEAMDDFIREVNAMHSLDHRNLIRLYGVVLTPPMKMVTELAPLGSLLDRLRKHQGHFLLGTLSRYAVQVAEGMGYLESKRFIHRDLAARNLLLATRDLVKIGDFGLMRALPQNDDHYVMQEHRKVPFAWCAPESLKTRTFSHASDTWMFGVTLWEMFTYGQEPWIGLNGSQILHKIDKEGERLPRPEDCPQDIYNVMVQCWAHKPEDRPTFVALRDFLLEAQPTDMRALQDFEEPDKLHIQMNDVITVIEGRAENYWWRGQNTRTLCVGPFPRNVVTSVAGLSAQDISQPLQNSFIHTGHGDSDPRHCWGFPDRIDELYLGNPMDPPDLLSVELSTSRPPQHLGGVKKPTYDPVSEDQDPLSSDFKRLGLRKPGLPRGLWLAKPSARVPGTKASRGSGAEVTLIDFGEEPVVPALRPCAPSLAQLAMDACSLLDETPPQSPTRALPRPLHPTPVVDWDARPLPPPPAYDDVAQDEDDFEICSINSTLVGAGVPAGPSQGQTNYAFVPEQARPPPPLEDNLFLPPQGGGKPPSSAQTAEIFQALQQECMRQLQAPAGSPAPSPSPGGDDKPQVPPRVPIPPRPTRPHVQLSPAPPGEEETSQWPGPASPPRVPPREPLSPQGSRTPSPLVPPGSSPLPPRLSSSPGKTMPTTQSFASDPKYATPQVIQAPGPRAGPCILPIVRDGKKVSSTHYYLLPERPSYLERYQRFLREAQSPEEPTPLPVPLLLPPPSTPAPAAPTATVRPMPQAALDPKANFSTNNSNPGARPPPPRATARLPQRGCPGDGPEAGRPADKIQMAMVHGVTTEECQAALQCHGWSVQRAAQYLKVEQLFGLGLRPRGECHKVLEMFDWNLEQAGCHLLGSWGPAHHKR
Sequence of Tyrosine-protein kinase Fyn (Homo sapiens) (P06241 2-537 limits assumed): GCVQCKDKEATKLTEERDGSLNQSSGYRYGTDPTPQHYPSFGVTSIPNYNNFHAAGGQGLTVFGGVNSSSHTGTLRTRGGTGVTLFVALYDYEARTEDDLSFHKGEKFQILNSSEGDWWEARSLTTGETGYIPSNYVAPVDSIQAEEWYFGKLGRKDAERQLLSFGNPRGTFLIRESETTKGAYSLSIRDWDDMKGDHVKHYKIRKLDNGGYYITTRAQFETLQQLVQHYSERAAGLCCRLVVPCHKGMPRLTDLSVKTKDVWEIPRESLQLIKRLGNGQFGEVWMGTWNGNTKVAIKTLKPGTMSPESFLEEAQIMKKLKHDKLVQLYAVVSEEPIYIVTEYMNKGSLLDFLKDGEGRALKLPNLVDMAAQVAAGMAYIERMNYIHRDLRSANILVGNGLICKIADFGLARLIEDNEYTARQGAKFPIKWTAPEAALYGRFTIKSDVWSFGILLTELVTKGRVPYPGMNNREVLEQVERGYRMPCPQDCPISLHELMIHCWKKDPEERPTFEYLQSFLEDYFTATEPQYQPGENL

SMILES: NC(=O)c1nnc2ccccc2c1N
IC50 [1]: 38000 nM
IC50 [2]: 3500 nM

SMILES: NC(=O)c1nnc2c(-c3ccc4cn[nH]c4c3)cccc2c1N
IC50 [1]: 1300 nM

SMILES: Cn1cc(-c2cccc3c(N)c(C(N)=O)nnc23)cn1
EC50 [37]: > 50000 nM
IC50 [1]: 13000 nM
hepatic extraction ratio at 0.5 h, 1 µM [38]: 0.77
hepatic extraction ratio at 0.5 h, 1 µM [39]: 0.5
Papp A→B (MDR1): 28.8 ×10⁻⁶ cm/s
Ratio (LLC-PK1): 0.7
clearance [3]: 22 mL/min/kg
hepatic extraction ratio [40]: 0.3
Vd [4]: 0.7 L/kg
half-life [5]: 1.3 h
bioavailability [6]: 35%
IC50 [2]: 240000 nM

Continued, in another order:

clearance [3]: 12 mL/min/kg
Vd [4]: 1.5 L/kg
half-life [5]: 1.6 h
bioavailability [6]: 70%
IC50 (Activin receptor type-1): 7 nM
IC50 (LIM domain kinase 1): 12 nM
IC50 (Activated CDC42 kinase 1): 11 nM
clearance [9]: 18 mL/min/kg
Vd [10]: 0.8 L/kg
half-life [11]: 1.6 h
bioavailability [12]: 93%
clearance [13]: 8.7 mL/min/kg
Vd [14]: 1.1 L/kg
half-life [15]: 4.1 h
bioavailability [16]: 89%
inhibition [17]: 89%
inhibition [18]: 91%
inhibition [19]: 92%
inhibition [20]: 94%
inhibition [21]: 88%
inhibition [22]: 53%
inhibition [23]: 82%
inhibition [24]: 87%
inhibition [25]: 73%
IC50 [26]: 36 nM
IC50 [27]: 36 nM
IC50 [28]: 57 nM
IC50 [29]: 41 nM
IC50 [30]: 41 nM
IC50 [31]: 99 nM
IC50 [32]: 82 nM
IC50 [33]: 54 nM
IC50 [34]: 67 nM
inhibition [35]: 82%
inhibition [36]: 85%
SMILES: Cc1cc2cn[nH]c2cc1-c1cccc2c(N)c(C(N)=O)nnc12
Activity (Rattus norvegicus [7]): Dose-dependent effect
Activity (Rattus norvegicus [8]): Dose-dependent effect

IC50 [1]: 6400 nM
SMILES: NC(=O)c1nnc2c(-c3ccc4cc[nH]c4c3)cccc2c1N
